Data taken from patent publication US6538145B2, “24-hydroxy vitamin D derivatives” (Chugai Seiyaku Kabushiki Kaisha, priority 1998, dated 2003).

Biological target: T1, vitamin D receptor derived from chick intestine (Gallus gallus, UniProt O42392)
T1 construct: vitamin D receptor derived from chick intestine; from tissue; host or cells: chick intestine
T1 sequence (O42392 1-451): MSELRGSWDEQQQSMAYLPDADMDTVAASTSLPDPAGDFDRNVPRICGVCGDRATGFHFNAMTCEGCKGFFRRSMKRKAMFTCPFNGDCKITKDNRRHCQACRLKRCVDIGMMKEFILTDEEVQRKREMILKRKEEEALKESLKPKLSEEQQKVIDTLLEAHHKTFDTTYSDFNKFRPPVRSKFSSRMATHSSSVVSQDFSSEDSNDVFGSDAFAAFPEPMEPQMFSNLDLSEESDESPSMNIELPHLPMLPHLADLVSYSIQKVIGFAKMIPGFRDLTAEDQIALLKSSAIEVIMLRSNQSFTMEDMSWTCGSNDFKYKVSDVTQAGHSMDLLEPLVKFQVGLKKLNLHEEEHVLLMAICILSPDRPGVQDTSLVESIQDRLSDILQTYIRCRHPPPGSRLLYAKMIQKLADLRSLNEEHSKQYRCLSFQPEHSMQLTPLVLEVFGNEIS
Assay: Assay for binding to vitamin D receptor (VDR), radio receptor assay (RRA)
Conditions: competition with 3H-1α,25-dihydroxyvitamin D3; test compound 1 to 100,000 nM; 4° C. for 3 hours; result in words only
Method: By the radio receptor assay (RRA), compounds 1a and 1b of the present invention were tested for their ability to bind to vitamin D receptor derived from chick intestine.
^3H-1α,25-dihydroxyvitamin D3 was dissolved in ethanol (20 μl) at a concentration of 10,000 dpm. Three test compounds, 1α,25-dihydroxyvitamin D3, compound la and compound 1b, were diluted with ethanol to give concentrations in the range of from 1 to 100,000 nM, respectively.
To each of small tubes, 20 μl of ^3H-1α,25 -dihydroxyvitamin D3 in solution and 50 μl of a test compound (i.e., 1α,25-dihydroxyvitamin D3, compound 1a or compound 1b) in solution were added. A solution of vitamin D receptor was prepared by dissolving 25 mg of VDR in 70 ml of 0.05M phosphate buffer solution containing 0.3 M KCl and 5 mM DTT (dithiothreitol) and 0.5 ml of the resulting solution was added to each tube, followed by mixing. […] To 0.5 ml of the supernatant, 5 ml of liquid scintillator was added for radioactivity measurement. The B/B0 value was calculated from the measurements (B: radioactivity measured in the presence of a test compound, B0: radioactivity measured in the absence of the test compound).

Question: Which “affinity for the vitamin D receptor (B/B0, FIG. 1)” value does the source give for `C=C1C(=CC=C2CCCC3(C)C2CCC3C(C)CCC(O)C(C)(C)O)CC(O)C(OCCCO)C1O` [Compound 1a, (5Z,7E)-(1R,2R,3R,24S)-2-(3-hydroxypropoxy)-9,10-secocholesta-5,7,10(19)-triene-1,3,24,25-tetraol] here?
Answer: show affinity for the vitamin D receptor
